Assay results as given in patent US5614192A, “T cell receptor peptides as therapeutics for immune-related disease” (Connective Therapeutics, Inc., priority 1993, dated 1997).

Columns and labels:
EAE [1] = assay: Prevention of EAE by immunization with TCR peptide (Example VI); format: in vivo, Lewis rats; conditions: for protection from EAE: Lewis rats
Text: EAE is a well-recognized rat model of the human autoimmune disease, multiple sclerosis. […] In this model, the disease is induced by injecting the subject rat with an encephalitogenic form of myelin basic protein, such as, for example, guinea pig basic protein (GPBP) or a synthetic peptide that corresponds to residues 72-89 of GPBP (GPBP(72-89)). Injection of either of these peptides in complete Freund's adjuvant (CFA) induces encephalitogenic T cell clones that utilize preferentially the rat homologs of mouse TCR Vα2 and Vβ8 genes (Chou, Y. K., et al., J. Neurosci. Res. 22:181-187 (1989); Burns, F. R., et al., J. Exp. Med. 169:27-39 (1989)).
^1 EAE was induced by SC challenge with 50 μg GPBP + 400 μg
^2 Rats were injected SC with either: (1) 100 μg of the TCR peptid
^3 Values represent the mean of the maximum severity of EAE. 0, no

TCR Vβ8(39-59) peptide = format: binding, rat
[2] = tested on: T cell lines derived from rats protected from EAE; assay: Proliferation of LN cells and T cell lines from rats protected by TCR Vβ8 peptide (Table 12); format: cell-based, rat
DTH response = assay: Delayed hypersensitivity responses to TCR peptides, ear swelling (Table 26); format: in vivo, Lewis rats
LNC and T cell lines = assay: T cell proliferation after treatment of EAE with TCR Vβ8 39-59/CFA (Table 27); format: cell-based, rats
Procedure: Lymphocyte Proliferation: Activation of T cells was measured by ^3 H-Tdy uptake. 500,000 lymph node cells or 20,000 line cells in the presence of 1 million irradiated thymic accessory cells were incubated with culture medium and antigens in microtiter wells for 18 hours prior to the addition of 0.5 μBq labeled thymidine. The cell cultures were harvested onto glass fiber filters and counted by liquid scintillation techniques. Mean CPM were calculated from triplicate cultures. Standard deviations (SD) from replicate cultures varied <10% from the mean value.
^a Treated rats were injected s.q. with 50 μg TCR Vβ839-59
^b LW cells collected after the untreated group recovered from EAE

[3] = tested on: lymph node cells and Vβ8-44-54 selected T cell line
T cell immunity = T cell immunity / DH response induced by peptide; format: in vivo; conditions: Lewis rats
Text: Immunogenicity of peptides useful in the present invention can be screened by well-known methods, such as use of a DH response in an animal. In such a response, an animal is "sensitized" by injection of an appropriate dose of an antigen, typically subcutaneously (SC), frequently with an adjuvant, such as complete Freund's adjuvant (CFA). Generally about 5-15 days later, the response is "elicited" by challenging the animal, typically intradermally (ID), with an appropriate dose of the antigen, typically in saline or other buffer. The response is assessed 24-48 hours later. […]
The desired peptides, with sequences determined as described above, are prepared using standard synthesis techniques including solution and solid phase sequential amino acid conjugation and recombinant production in prokaryotic or eukaryotic hosts. Verification that the peptide prepared is immunogenic can easily be determined using a DH reaction in an animal (e.g., mouse or rat), as described above. […] The ear swelling response, measured 24 or 48 hours after challenge, serves as a simple and reliable measure of the presence of T cell-mediated immunity to the peptide.

EAE [4] = assay: Prevention, suppression and treatment of EAE with TCR Vβ8-39-59 peptide (Table 25); format: in vivo, Lewis rats; conditions: peptide/CFA s.q.
EAE [5] = assay: Prevention and suppression of EAE by immunization with TCR Vβ8(39-59) (Table 17); format: in vivo, Lewis rats; conditions: 100 μg peptide/CFA day 0, Gp-S49S (100 μg) challenge day 0
EAE [6] = assay: Clinical EAE in rats treated with TCR Vβ8(39-59) before or after onset (Table 22); format: in vivo; conditions: Exp. 2; control TCR peptide, day 13
Procedure: The ability of the TCR Vβ8(39-59) given either SC (in adjuvant) or ID (in saline) to disrupt the disease process when given at various times after induction of EAE with GPBP was tested (Table 22). […] In both cases, with both routes of injection of the peptide, there was a significant reduction in the duration of the disease, though not in the severity or time of onset. The efficacy of the peptide given in saline via the ID route is of particular importance to human therapy, as it is preferred to SC injection in adjuvant.
In Experiment 2, the time of ID administration of the TCR peptide was varied, as was the dose. […] A delay in onset of the disease was also observed. Furthermore, the percentage of animals showing signs of the disease decreased. A larger dose of the peptide (200 μg) appeared less efficacious than the lower dose, possibly due to a short-term overload of the peptide which could have comprised the immune response generated against the TCR. Treatment with a similarly sized peptide corresponding to an irrelevant TCR had no effect on onset, severity or incidence of EAE, but may have reduced the duration somewhat (last line of Table 22).

[7] = 100 μg peptide/CFA SC 30 days before GPBP/CFA

## APGGTLQQLFYSFNVGQSLF [TCR Vβ14 peptide, control peptide, residues 39-59 of rat TCR homologous to mouse Vβ14, reference compound]
EAE [1]; [7]
  EAE Day of Onset: 14 ± 2
  EAE Duration: 6 ± 2
  EAE Severity (mean of maximum severity, scale 0-4): 3.1 ± 0.3
EAE [1]; 100 μg peptide/CFA SC 30 days before challenge with 50 μg GPBP/CFA
  EAE Incidence: 4/4
EAE [1]
  protection from EAE: did not confer protection against EAE
EAE [1]; listed as Vβ14(39-59)
  protection from EAE: did not provide protection from EAE
TCR Vβ8(39-59) peptide
  absorbance of serum on TCR Vβ8(39-59) peptide (A405): 0.02±0.01 units
[2]; 1st value column (head not given; LN cells of protected rats)
  T Cell Proliferation: 10 cpm × 10^-3
[2]; 2nd value column (head not given, TCR Vβ8(39-59)-selected line)
  T Cell Proliferation: 2 cpm × 10^-3
DTH response; GP-BP/CFA immunized rats, ear test Day 12 (EAE onset)
  48 Hour DTH Response: 11 ± 4
DTH response; Normal or saline/CFA rats, ear test Day 12
  48 Hour DTH Response: 10 ± 4
DTH response; TCR Vβ8 peptide/CFA immunized rats, ear test Day 30
  48 Hour DTH Response: 9 ± 3
DTH response; TCR Vβ814 (so in the source) peptide/CFA immunized rats, ear test Day 30
  48 Hour DTH Response: 40 ± 4
LNC and T cell lines; Treated rats, line Vβ8/1st
  Proliferation: 8 ± 2 CPM/1000
LNC and T cell lines; Untreated rats (GPBP/CFA only), LNC
  Proliferation: 29 ± 4 CPM/1000
LNC and T cell lines; Untreated rats, line BP/1st
  Proliferation: 17 ± 2 CPM/1000
LNC and T cell lines; Untreated rats, line Vβ8/1st
  Proliferation: 11 ± 2 CPM/1000
LNC and T cell lines; Untreated rats, line Vβ14/1st
  Proliferation: 25 ± 6 CPM/1000
[3]
  Response of Lymph Node Cells: 18 ± 2
  Response of T Cell Line: 9 ± 1
T cell immunity
  induction of T cell immunity: did induce immunity
EAE [4]; Day 0
  Duration: 6.4 ± 0.3 days
  EAE/TOTAL: 6/6
  Max Clin. Signs: 3.3 ± 0.5
  Onset: 12
EAE [4]; Day -40
  Duration: 6.1 ± 0.6 days
  EAE/TOTAL: 8/8
  Max Clin. Signs: 3.2 ± 0.3
  Onset: 12
EAE [4]; Day onset
  Duration: 6.0 ± 1.5 days
  EAE/TOTAL: 4/4
  Max Clin. Signs: 3.0 ± 0.4
  Onset: 12
EAE [5]
  Clinical Score: 2.9
EAE [6]
  Day of Onset: 13.7 ± 0.5
  Disease Duration: 3.5 ± 0.5
  Disease Incidence: 6/6
  Disease Severity: 2.5 ± 0.8

## KQNNNHNNMYWYRQDMG [Vβ8 (25-41), CDR1 peptide of TCR Vβ8]
EAE [1]
  protection from EAE: does not protect Lewis rats from EAE
[3]
  Response of Lymph Node Cells: 14 ± 0
  Response of T Cell Line: 6 ± 1
T cell immunity
  induction of T cell immunity: does not induce T cell immunity
